# Target: T1, JAK2 (Homo sapiens, UniProt O60674, V617F)
# T1 construct: their effect on JAK2 protein degradation in SET2 cells; host or cells: SET2 cells (human essential thrombocythemia)
# Test: Western blot quantitation of JAK2 degradation in SET2 cells
# Assay type: cell-based
# Settings: 5 μM compound, 8 hours treatment, western blot densitometry vs. DMSO vehicle
# Procedure: Example E. Western Blot Analysis of JAK2 Dependent SET2 Cells Treated with Compounds of the Present Disclosure
# SET2 cells (DSMZ, catalog number ACC 608) are isolated from a person with human essential thrombocythemia and carry the JAK2 V617F mutation.
# SET2 cells were cultured in RPMI culture medium (Gibco, catalog number 11875085) supplemented with 1% penicillin-streptomycin-glutamine (Thermo Fisher Scientific, catalog number 10378016) and 20% fetal bovine serum (Gibco, catalog number 10438034). Cultured cells were maintained at 37° C., 5% CO2 in the incubator.
# Approximately 1,000,000 cells/well were added in 6-well plate containing 1.5 ml culture media with specified concentrations of compounds of the present disclosure or DMSO control. Cells were treated with concentrations of 10 uM, 5 uM, 1 uM, and 0.5 uM. Proteasome inhibitor MG-132 (Cell signaling, catalog number 2194) was added at 20 uM to an additional 10 uM compound treatment. The treatment period was 8 hours. After 8 hours, cells were collected in 1.5 mL microcentrifuge tubes. Tubes were centrifuged at 1500 rpm for 5 min. Supernatant was aspirated and samples were washed with 1 mL of cold PBS. The samples were centrifuged again at 1500 rpm for 5 min, supernatant was aspirated. The sample pellets were lysed using 150 μL of 1× lysing buffer (Cell Signaling Technologies—catalog number 9803S) supplemented with 1× Halt™ Protease and Phosphatase Inhibitor Cocktail (Thermo Fisher Scientific—catalog number 78447). Using Pierce™ BCA Protein Assay Kit (Thermo Fisher Scientific—catalog number 23225), protein concentration of the samples were quantitated. After normalizing sample concentration to approximately 20 ug/well, samples were loaded onto 4-12% Tris-glycine gels. Gels were transferred to nitrocellulose membranes using iBlot 2 Dry Blotting System and iBlot™ 2 Transfer Stacks, nitrocellulose (Thermo Fisher Scientific—catalog number IB23001). Following transfer, membranes were blocked with StartingBlock (Thermo Fisher Scientific—catalog number 37543). After 1 hour of blocking membranes, they were probed for JAK2, pSTAT5, STAT5, CRBN, and GAPDH (Cell Signaling—catalog numbers 3230, 4322, 25656, 71810, and 5174 respectively).
# Compounds of the present disclosure were screened at various concentrations to determine their effect on JAK2 protein degradation in SET2 cells, using methods as described above. DMSO was used as the vehicle control with no PROTAC® added. Co-administration of 20 μM of the proteasome inhibitor MG-132 with the PROTAC® compound at its highest concentration (i.e., 5 or 10 μM) tested was conducted to support the hypothesis that the degradation was driven by the ubiquitin-proteosome system (UPS). Degradation was evaluated by western blot densitometry quantitation using the FluorChem M instrument software to analyze the intensity of the JAK2 band signal at various concentrations of PROTAC® compound vs. the JAK2 band signal of the DMSO vehicle. It is noted that ˜82% of JAK2 exists as the V617F mutant, with the remaining 18% of JAK2 being WT. Therefore, if the V617F mutant JAK2 is selectively degraded over the WT, the maximum degradation is ˜80%. Degradation was graded as A: […]; B: ≥40% to <60% degradation; C: ≥20% to <40% degradation, D: <20% to ≥10%; E<10%. ** refers to degradation at 0.5 μM.
# T1 sequence (O60674 whole entry V617F): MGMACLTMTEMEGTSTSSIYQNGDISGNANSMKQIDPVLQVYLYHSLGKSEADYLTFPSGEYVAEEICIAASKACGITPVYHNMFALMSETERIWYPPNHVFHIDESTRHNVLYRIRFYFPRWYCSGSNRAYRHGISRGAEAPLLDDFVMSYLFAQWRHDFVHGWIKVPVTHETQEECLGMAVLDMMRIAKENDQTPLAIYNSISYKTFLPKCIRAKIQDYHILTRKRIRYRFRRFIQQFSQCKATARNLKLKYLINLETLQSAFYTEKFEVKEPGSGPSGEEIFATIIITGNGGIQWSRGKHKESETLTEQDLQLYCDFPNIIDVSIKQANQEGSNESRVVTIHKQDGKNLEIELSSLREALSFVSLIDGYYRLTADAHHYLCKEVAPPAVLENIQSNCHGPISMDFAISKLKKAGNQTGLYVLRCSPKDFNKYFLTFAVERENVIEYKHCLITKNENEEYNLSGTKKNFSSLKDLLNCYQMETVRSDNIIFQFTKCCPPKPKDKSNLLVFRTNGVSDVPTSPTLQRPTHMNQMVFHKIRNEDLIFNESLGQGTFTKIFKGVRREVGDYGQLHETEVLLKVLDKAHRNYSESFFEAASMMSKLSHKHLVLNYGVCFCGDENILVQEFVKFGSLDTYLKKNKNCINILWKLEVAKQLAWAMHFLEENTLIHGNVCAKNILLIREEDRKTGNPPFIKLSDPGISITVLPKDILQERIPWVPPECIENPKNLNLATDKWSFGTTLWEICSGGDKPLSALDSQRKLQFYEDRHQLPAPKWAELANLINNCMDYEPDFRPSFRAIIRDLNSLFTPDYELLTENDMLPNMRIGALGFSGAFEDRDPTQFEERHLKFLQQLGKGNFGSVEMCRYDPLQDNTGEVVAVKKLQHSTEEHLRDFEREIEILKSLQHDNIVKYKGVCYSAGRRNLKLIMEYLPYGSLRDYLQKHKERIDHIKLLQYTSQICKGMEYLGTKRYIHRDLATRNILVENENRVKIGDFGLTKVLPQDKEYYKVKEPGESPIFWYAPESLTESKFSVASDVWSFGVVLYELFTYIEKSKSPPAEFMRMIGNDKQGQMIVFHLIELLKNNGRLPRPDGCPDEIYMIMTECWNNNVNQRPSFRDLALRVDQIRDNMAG
row,SMILES,JAK2 % Degradation in SET2
1,"COC(=O)N[C@@H]1CC[C@@H](n2c(=O)n(C)c3cnc4[nH]c(-c5ccc(C(=O)N6CCN(c7ccc8c(c7)C(=O)N(C7CCC(=O)NC7=O)C8=O)CC6)cc5)c(-c5ccc6c(cnn6C(C)C)c5)c4c32)C1 (stereo partly drawn) [Example 62, Methyl((1R,3R)-3-(7-(4-(4-(2-(2,6-dioxopiperidin-3-yl)-1,3-dioxoisoindolin-5-yl)piperazine-1-carbonyl)phenyl)-8-(1-isopropyl-1H-indazol-5-yl)-3-methyl-2-oxo-3,6-dihydroimidazo[4,5-d]pyrrolo[2,3-b]pyridin-1(2H)-yl)cyclopentyl)carbamate]",E (E<10%)
2,"COC(=O)N[C@@H]1CC[C@@H](n2c(=O)n(C)c3cnc4[nH]c(-c5ccc(C(=O)N6CCC(CN7CCN(c8cccc9c8C(=O)N(C8CCC(=O)NC8=O)C9)CC7)CC6)cc5)c(-c5ccc6c(cnn6C(C)C)c5)c4c32)C1 (stereo partly drawn) [Example 63, Methyl((1R,3R)-3-(7-(4-(4-((4-(2-(2,6-dioxopiperidin-3-yl)-3-oxoisoindolin-4-yl)piperazin-1-yl)methyl)piperidine-1-carbonyl)phenyl)-8-(1-isopropyl-1H-indazol-5-yl)-3-methyl-2-oxo-3,6-dihydroimidazo[4,5-d]pyrrolo[2,3-b]pyridin-1(2H)-yl)cyclopentyl)carbamate]",C (C: ≥20% to <40% degradation)

# Same assay, conditions: 10 μM compound, 8 hours treatment, western blot densitometry vs. DMSO vehicle
row,SMILES,JAK2 % Degradation in SET2
1,"CN[C@@H](C)C(=O)N[C@H](C(=O)N1C[C@@H](NC(=O)[C@H]2CC[C@H](CNC(=O)c3ccc(-c4[nH]c5ncc6c(c5c4-c4ccc5c(cnn5C(C)C)c4)n([C@@H]4CC[C@@H](NC(=O)OC)C4)c(=O)n6C)cc3F)CC2)C[C@H]1C(=O)N[C@@H]1CCCc2ccccc21)C1CCCCC1 [Example 47, Methyl((1R,3R)-3-(7-(4-((((trans)-4-(((3S,5S)-1-((S)-2-cyclohexyl-2-((S)-2-(methylamino)propanamido)acetyl)-5-(((R)-1,2,3,4-tetrahydronaphthalen-1-yl)carbamoyl)pyrrolidin-3-yl)carbamoyl)cyclohexyl)methyl)carbamoyl)-3-fluorophenyl)-8-(1-isopropyl-1H-indazol-5-yl)-3-methyl-2-oxo-3,6-dihydroimidazo[4,5-d]pyrrolo[2,3-b]pyridin-1(2H)-yl)cyclopentyl)carbamate]",C (C: ≥20% to <40% degradation)
2,"CN[C@@H](C)C(=O)N[C@H](C(=O)N1C[C@@H](NC(=O)COCCOCCNC(=O)c2ccc(-c3[nH]c4ncc5c(c4c3-c3ccc4c(cnn4C(C)C)c3)n([C@@H]3CC[C@@H](NC(=O)OC)C3)c(=O)n5C)cc2F)C[C@H]1C(=O)N[C@@H]1CCCc2ccccc21)C1CCCCC1 [Example 51, Methyl((1R,3R)-3-(7-(4-((2-(2-(2-(((3S,5S)-1-((S)-2-cyclohexyl-2-((S)-2-(methylamino)propanamido)acetyl)-5-(((R)-1,2,3,4-tetrahydronaphthalen-1-yl)carbamoyl)pyrrolidin-3-yl)amino)-2-oxoethoxy)ethoxy)ethyl)carbamoyl)-3-fluorophenyl)-8-(1-isopropyl-1H-indazol-5-yl)-3-methyl-2-oxo-3,6-dihydroimidazo[4,5-d]pyrrolo[2,3-b]pyridin-1(2H)-yl)cyclopentyl)carbamate]",B (B: ≥40% to <60% degradation)
3,"COC(=O)N[C@@H]1CC[C@@H](n2c(=O)n(C)c3cnc4[nH]c(-c5ccc(C(=O)N6CCC(CC(=O)Nc7ccc8c(c7)CN(C7CCC(=O)NC7=O)C8=O)CC6)c(F)c5)c(-c5ccc6c(cnn6C(C)C)c5)c4c32)C1 (stereo partly drawn) [Example 53, Methyl((1R,3R)-3-(7-(4-(4-(2-((2-(2,6-dioxopiperidin-3-yl)-1-oxoisoindolin-5-yl)amino)-2-oxoethyl)piperidine-1-carbonyl)-3-fluorophenyl)-8-(1-isopropyl-1H-indazol-5-yl)-3-methyl-2-oxo-3,6-dihydroimidazo[4,5-d]pyrrolo[2,3-b]pyridin-1(2H)-yl)cyclopentyl)carbamate]",C (C: ≥20% to <40% degradation)
4,"COC(=O)N[C@@H]1CC[C@@H](n2c(=O)n(C)c3cnc4[nH]c(-c5ccc(C(=O)NC[C@H]6CC[C@H](C(=O)Nc7ccc8c(c7)CN(C7CCC(=O)NC7=O)C8=O)CC6)c(F)c5)c(-c5ccc6c(cnn6C(C)C)c5)c4c32)C1 (stereo partly drawn) [Example 54, Methyl((1R,3R)-3-(7-(4-((((trans-)-4-((2-(2,6-dioxopiperidin-3-yl)-1-oxoisoindolin-5-yl)carbamoyl)cyclohexyl)methyl)carbamoyl)-3-fluorophenyl)-8-(1-isopropyl-1H-indazol-5-yl)-3-methyl-2-oxo-3,6-dihydroimidazo[4,5-d]pyrrolo[2,3-b]pyridin-1(2H)-yl)cyclopentyl)carbamate]",C (C: ≥20% to <40% degradation)
5,"COC(=O)N[C@@H]1CC[C@@H](n2c(=O)n(C)c3cnc4[nH]c(-c5ccc(C(=O)N6CCC(C(=O)Nc7ccc8c(c7)CN(C7CCC(=O)NC7=O)C8=O)CC6)c(F)c5)c(-c5ccc6c(cnn6C(C)C)c5)c4c32)C1 (stereo partly drawn) [Example 58, Methyl((1R,3R)-3-(7-(4-(4-((2-(2,6-dioxopiperidin-3-yl)-1-oxoisoindolin-5-yl)carbamoyl)piperidine-1-carbonyl)-3-fluorophenyl)-8-(1-isopropyl-1H-indazol-5-yl)-3-methyl-2-oxo-3,6-dihydroimidazo[4,5-d]pyrrolo[2,3-b]pyridin-1(2H)-yl)cyclopentyl)carbamate]",E (E<10%)
6,"COC(=O)N[C@@H]1CC[C@@H](n2c(=O)n(C)c3cnc4[nH]c(-c5ccc(C(=O)N6CCC(C(=O)Nc7ccc8c(c7)CN(C7CCC(=O)NC7=O)C8=O)CC6)cc5)c(-c5ccc6c(cnn6C(C)C)c5)c4c32)C1 (stereo partly drawn) [Example 60, Methyl((1R,3R)-3-(7-(4-(4-((2-(2,6-dioxopiperidin-3-yl)-1-oxoisoindolin-5-yl)carbamoyl)piperidine-1-carbonyl)phenyl)-8-(1-isopropyl-1H-indazol-5-yl)-3-methyl-2-oxo-3,6-dihydroimidazo[4,5-d]pyrrolo[2,3-b]pyridin-1(2H)-yl)cyclopentyl)carbamate]",C (C: ≥20% to <40% degradation)
7,"COC(=O)N[C@@H]1CC[C@@H](n2c(=O)n(C)c3cnc4[nH]c(-c5ccc(C(=O)N6CCC(CC(=O)Nc7ccc8c(c7)CN(C7CCC(=O)NC7=O)C8=O)CC6)cc5)c(-c5ccc6c(cnn6C(C)C)c5)c4c32)C1 (stereo partly drawn) [Example 61, Methyl((1R,3R)-3-(7-(4-(4-(2-((2-(2,6-dioxopiperidin-3-yl)-1-oxoisoindolin-5-yl)amino)-2-oxoethyl)piperidine-1-carbonyl)phenyl)-8-(1-isopropyl-1H-indazol-5-yl)-3-methyl-2-oxo-3,6-dihydroimidazo[4,5-d]pyrrolo[2,3-b]pyridin-1(2H)-yl)cyclopentyl)carbamate]",C (C: ≥20% to <40% degradation)
